{"source": "patent US11987563B1", "about": "“3-cyano 4,5-diphenyl furan-2-carboxamides as antitubercular agents” (KING FAISAL UNIVERSITY, priority 2023, dated 2024)", "key": {"[1]": {"test_system": "M. tuberculosis H37Rv", "assay": "Microplate Alamar Blue Assay (MABA) against M. tuberculosis H37Rv", "type": "cell-based", "settings": "Mycobacterium tuberculosis, read-out: M. tuberculosis H37Rv (% of inhibition) 50 μg/mL"}, "[2]": {"test_system": "M. smegmatis", "assay": "Microplate Alamar Blue Assay (MABA) against M. smegmatis", "type": "cell-based, Mycobacterium smegmatis", "settings": "Mycolicibacterium smegmatis; read-out: M. smegmatis (% of inhibition) 50 μg/mL"}}, "data": [{"smiles": "N#Cc1c(NC(=O)c2ccc(Cl)cc2)oc(-c2ccccc2)c1-c1ccccc1", "note": "[Compound 2c, 4-Chloro-N-(3-cyano-4,5-diphenylfuran-2-yl)benzamide]", "values": [{"measurement": "inhibition at 50 µg/mL", "setting": "[1]", "result": 19, "unit": "%"}, {"measurement": "inhibition at 50 µg/mL", "setting": "[2]", "result": 25, "unit": "%"}]}, {"smiles": "N#Cc1c(N)oc(-c2ccccc2)c1-c1ccccc1", "note": "[Compound 1, 2-Amino-4,5-diphenylfuran-3-carbonitrile]", "values": [{"measurement": "inhibition at 50 µg/mL", "setting": "[1]", "result": 6, "unit": "%"}, {"measurement": "inhibition at 50 µg/mL", "setting": "[2]", "result": 32, "unit": "%"}]}, {"smiles": "N#Cc1c(NC(=O)c2ccccc2)oc(-c2ccccc2)c1-c1ccccc1", "note": "[Compound 2b, N-(3-Cyano-4,5-diphenylfuran-2-yl)benzamide]", "values": [{"measurement": "inhibition at 50 µg/mL", "setting": "[1]", "result": 6, "unit": "%"}, {"measurement": "inhibition at 50 µg/mL", "setting": "[2]", "result": 13, "unit": "%"}]}, {"smiles": "CC(=O)Nc1oc(-c2ccccc2)c(-c2ccccc2)c1C#N", "note": "[Compound 2a, N-(3-Cyano-4,5-diphenylfuran-2-yl)acetamide]", "values": [{"measurement": "inhibition at 50 µg/mL", "setting": "[1]", "result": 27, "unit": "%"}, {"measurement": "inhibition at 50 µg/mL", "setting": "[2]", "result": 38, "unit": "%"}]}, {"smiles": "Cc1ccc(S(=O)(=O)Nc2oc(-c3ccccc3)c(-c3ccccc3)c2C#N)cc1", "note": "[Compound 2d, N-(3-Cyano-4,5-diphenylfuran-2-yl)-4-methylbenzenesulfonamide]", "values": [{"measurement": "inhibition at 50 µg/mL", "setting": "[1]", "result": 9, "unit": "%"}, {"measurement": "inhibition at 50 µg/mL", "setting": "[2]", "result": 37, "unit": "%"}]}]}
